# Legend:
# Format in all cases: cell-based
# [1] = system: endogenous DcpS exon 4 splice site; assay: Antisense splice switching of endogenous DcpS, splicing patterns by RT-PCR; conditions: 293T cells
# Method: FIG. 6. Splice switching of endogenous DcpS intron 4 to the DcpS^In15 alternative site. Vivo-morpholino antisense oligonucleotide (red line) was added to GM03813 cells and DcpS splicing tested. Schematic on lower right depicts the splicing pattern resulting with the indicated concentration of vivo-morpholino and arrows denote the primers used. Endogenous splicing is inhibited and shifted to the alternative site 45nt downstream as well as exon 4 skipping. Bottom panel is a control of exon2-exon3 junction not affected by the oligonucleotide. An exemplary antisense molecule comprises 5′ TTCCAGCCAGAAA CCTTTACCTGCT 3′ (SEQ ID NO: 1). However, antisense oligonucleotides can be designed to hybridize to the any contiguous 20-25 mer present in the DcpS variant sequence shown in FIG. 6.
# Shifting of the endogenous DcpS gene to express the DcpS^In15 variant can also be accomplished by antisense oligonucleotide splice switching technology. With this approach, an antisense oligonucleotide complementary to the endogenous splice site is used to block the endogenous site and shift the splicing pattern to the DcpS^In15 pattern in SMA patient cells. The objective is to alter the endogenous DcpS splicing in order to generate sufficient levels of DcpS^In15 thereby elevating SMN2 gene expression and increasing levels of full length SMN protein. 293T cells were treated with 5 μM antisense morpholino oligonucleotide containing a cell permeable guanidinium based dendramer delivery system (vivo-morpholino; GeneTools LLC) for 24 hours and splicing patterns determined by RT-PCR. […] Instead ˜50% of the splicing utilizes the DcpS^In15 splice site 45 nucleotides downstream analogous to that observed in the homozygous DcpS^In15 ID patient cells, and ˜50% results in both sites being blocked and skipping of exon 4 entirely. In the latter case (lower panel in FIG. 6), splicing bypasses exon 4 and goes from exon 3 to exon 5. […] The invention also encompasses optimized oligonucleotide sequences comprising altered nucleotide backbones, and small molecules that can shift splicing to further improve levels of DcpS^In15, thereby elevating SMN2 levels and providing a therapeutic intervention for SMA patients.
# [2] = system: fl-SMN2 mRNA; assay: fl-SMN2 mRNA in GM03813 SMA patient cells expressing DcpS variants; conditions: GM03813 cells knocked down for DcpS, stably expressing shRNA-resistant DcpS variant
# Method: (§1) FIGS. 3A-3C. DcpS^In15 increases fl-SMN2 mRNA and SMN protein in GM03813 SMA patient cells. FIG. 3A. fl-SMN2 mRNA levels were tested in GM03813 cells knocked down for DcpS and stably expressing the indicated shRNA-resistant DcpS variants. […] (Average of three biological replicates) FIG. 3B. Western of SMN and DcpS proteins from cells used in A. (Average of two biological replicates). FIG. 3C. SMN protein levels increase in GM0813 cells expressing DcpS^In15 with a background of endogenous levels of DcpS protein.
# [3] = system: SMN protein; assay: Western of SMN protein in GM03813 SMA patient cells expressing DcpS variants; conditions: background of reduced endogenous DcpS
# Method: as §1
Molecule,"splicing that utilizes the DcpS^In15 splice site 45 nucleotides downstream ([1]; 5 μM, 24 hours, RT-PCR)","splicing with both sites blocked and skipping of exon 4 entirely ([1]; 5 μM, 24 hours, RT-PCR)","utilization of the endogenous exon 4 splice site ([1]; 5 μM, 24 hours, RT-PCR)",level of DcpS^In15 mRNA ([1]; antisense oligonucleotide splice switching),fl-SMN2 mRNA levels [2],SMN protein level (Western) [3]
"5′ TTCCAGCCAGAAA CCTTTACCTGCT 3′ (antisense TTCCAGCCAGAAACCTTTACCTGCT; vivo-morpholino guanidinium dendrimer delivery moiety, chemistry not fully specified) [vivo-morpholino oligonucleotide, antisense morpholino oligonucleotide containing a cell permeable guanidinium based dendramer delivery system (vivo-morpholino; GeneTools LLC)]",~50%,~50%,completely inhibits,increased level,,
"wild type: wild type DcpS (scavenger decapping enzyme) used to complement DcpS knockdown cells (protein, UniProt Q96C86 2-337, looked up) m7GpppX diphosphatase: ADAAPQLGKRKRELDVEEAHAASTEEKEAGVGNGTCAPVRLPFSGFRLQKVLRESARDKIIFLHGKVNEASGDGDGEDAVVILEKTPFQVEQVAQLLTGSPELQLQFSNDIYSTYHLFPPRQLNDVKTTVVYPATEKHLQKYLRQDLRLIRETGDDYRNITLPHLESQSLSIQWVYNILDKKAEADRIVFENPDPSDGFVLIPDLKWNQQQLDDLYLIAICHRRGIRSLRDLTPEHLPLLRNILHQGQEAILQRYRMKGDHLRVYLHYLPSYYHLHVHFTALGFEAPGSGVERAHLLAEVIENLECDPRHYQQRTLTFALRADDPLLKLLQEAQQS",,,,,not observed,not observed
